Test results reported in paper PMC6554663, “Pharmaceutical Effects of Inhibiting the Soluble Epoxide Hydrolase in Canine Osteoarthritis” (Frontiers in Pharmacology, 2019).
Entries after “also recorded” stand apart in the source; their conditions may differ.

What was measured:
[1] = tested on: aged beagle dogs with OA; assay: Tolerability, adverse events and body weight in the dog study; type: in vivo
Description: The study was conducted as a blinded, parallel matched-group design. Dogs were randomized into groups based on pretreatment pain scores and each group was randomly assigned a treatment. Prior to randomization, each dog was assessed for arthritis by radiograph to assess the severity of OA by presence of osteophytes, subchondral sclerosis or joint effusion each scored on a scale of 0 (least) to 3 (worst) for each of 12 joints. Severity of the radiograph score was included in the randomization protocol and distributed between the groups, and there were no statistical differences between the averages of each group. Individual radiograph scores can be found in Supplementary Table S2. […] Vehicle group consisted of 5 mL PEG300 in capsule. Concurrent medications were not allowed and not needed during the study.

[2] = biological target: T1, Canine sEH (Canis lupus familiaris, UniProt A0A8I3NJL8); assay: Canine sEH inhibition IC50; type: biochemical; details: canine enzyme partially purified from liver cytosol
T1 construct: canine enzyme was partially purified on a Q-sepharose column from liver cytosol; from tissue; host or cells: dog liver cytosol, about 10-fold purification on Q-sepharose
T1 sequence (A0A8I3NJL8 1-556): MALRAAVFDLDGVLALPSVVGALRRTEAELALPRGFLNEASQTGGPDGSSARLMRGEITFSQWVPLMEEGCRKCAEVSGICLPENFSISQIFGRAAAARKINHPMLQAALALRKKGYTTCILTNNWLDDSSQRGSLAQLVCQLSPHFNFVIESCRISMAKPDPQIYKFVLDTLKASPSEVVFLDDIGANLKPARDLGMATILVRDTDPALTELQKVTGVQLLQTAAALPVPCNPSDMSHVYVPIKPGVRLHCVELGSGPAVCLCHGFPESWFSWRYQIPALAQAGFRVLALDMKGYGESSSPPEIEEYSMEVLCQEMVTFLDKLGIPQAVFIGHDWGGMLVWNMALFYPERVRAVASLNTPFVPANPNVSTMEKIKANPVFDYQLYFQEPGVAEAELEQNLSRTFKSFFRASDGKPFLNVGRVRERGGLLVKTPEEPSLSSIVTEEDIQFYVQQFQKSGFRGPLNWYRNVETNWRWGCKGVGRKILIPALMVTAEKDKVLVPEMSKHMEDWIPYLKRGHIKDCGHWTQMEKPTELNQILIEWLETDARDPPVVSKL

`CN(C(=O)N[C@H]1CC[C@H](Oc2ccc(C(=O)O)cc2)CC1)c1ccc(OC(F)(F)F)cc1` [EC3039, trans-4-{4-[3-methyl-3-(4-trifluoromethoxy-phenyl)-ureido]-cyclohexyloxy}-benzoic acid] was tested, and the “health case noted during treatment: relation to treatment” value ([1]; EC3039 1 mg/kg, individual dogs, 1 mg/kg) was “EC3039 – 1mg/kg / Not Related; also recorded: EC3039 – 1mg/kg / Unlikely Related”, the “health case noted during treatment: relation to treatment” value ([1]; EC3039 5 mg/kg, individual dog, moist dermatitis of ventral neck) was “EC3039 – 5mg/kg / Not Related” and the IC50 [2] was 4.42 nM.
